From patent US20210363173A1, “NEUROSTERIOD DERIVATIVES AND USES THEREOF” (ACERUS BIOPHARMA INC., priority 2018, published 2021)
Converted amounts (≈) assume the structure as drawn.

Tests used:
[1] = Solubility of esters in oils (solvent added in increments until a room temperature solubility is obtained); assay type: physicochemical; conditions: for Solubility Limit / solubility: castor oil, room temperature; for solubility: oil or lipid, thermodynamic from solid, read-out: Solubility Limit
Experimental: About 150 mg samples of each drug substance in Table are placed in about 300 mg of a test solvent in a test tube. The samples are swirled and gently heated with a warm water bath. Additional solvent is added in about 100 mg increments until solubility is reached. The samples are cooled overnight and if precipitation is observed, then more solvent is again added in portions until a room temperature solubility is obtained. […] Ganaxolone enanthate is a liquid and appeared miscible in the oils tested.

migraine = conditions: phase 2 clinical trial for migraine; cited from earlier work
[2] = post-oral administration; cited from earlier work

Row | SMILES | Solubility Limit [1] [% w/w] | solubility [1] [µg/mL] | Miscibility in the oils tested ([1]; oils tested, substance is a liquid) | benefit on time to pain relief (migraine) | drug recovered in feces [2] [%]
1 | CC(=O)[C@H]1CC[C@H]2[C@@H]3CC[C@H]4C[C@H](O)CC[C@]4(C)[C@H]3CC[C@]12C [Allopregnanolone, 5α-pregnan-3α-ol-20-one] | < 1 | < 10000 | – | – | –
2 | CCCCCCC(=O)OC1(C)CCC2(C)C(CCC3C2CCC2(C)C(C(C)=O)CCC32)C1 (stereo not shown) [Ganaxalone Enanthate] | – | – | miscible | – | –
3 | CC(=O)[C@H]1CC[C@H]2[C@@H]3CC[C@H]4C[C@](C)(O)CC[C@]4(C)[C@H]3CC[C@]12C [Ganaxalone, 3a-hydroxy-3-methyl-5a-pregnan-20-one] | ~1 | ~10000 (≈ 30.1 mM) | – | failed to show benefit | ~80
